What all share (format): in vivo
Settings in all cases: wettable powder applied 3 days after transplanting, judged after 25 days

The subject of data set [1] is annual broad-leaved weeds (Lindernia spp., Rotala indica). Description: Test Example 1: herbicidal effects, paddy-field pot test. The protocol:
(§1) A paddy soil was filled in 1/10,000 are pot, and seeds of barnyardgrass (Echinochloa oryzicola Vasing.), Scirpus joncoides and annual broad-leaved weeds (Lindernia spp., Rotala indica) which are awaken from dormancy were mixed at the surface layer of 1 cm. Also, tuber of Cyperus serotinus which is germinated was planted, and further seedlings of paddy-field rice at 2.2-leaf stage were transplanted, and they were grown under the flooded condition in a greenhouse. After 3 days from transplanting, a predetermined chemical dosage of the wettable powder prepared in accordance with Preparation example 1 was diluted in water, and the solution was applied to the pot and herbicidal effects and crop injury against transplanted paddy-field rice were judged after 25 days from the treatment. Also, 3-(2-allylphenoxy)-6-chloro-4-methoxypyridazine described in Chemical Pharmaceutical Bulletin, 1972, vol. 20, No. 10, pp. 2191-2203 was used as Comparative compound. Incidentally, herbicidal effects and crop injury against transplanted paddy-field rice were judged by the following judgment standard, and “-” in the table means no test was carried out.
(§2) Judgment Standard • 0: Growth inhibition rate; 0 to 10% • 1: Growth inhibition rate; 11 to 30% • 2: Growth inhibition rate; 31 to 50% • 3: Growth inhibition rate; 51 to 70% • 4: Growth inhibition rate; 71 to 90% • 5: Growth inhibition rate; 91 to 100%.

Data set [2] relates to Cyperus serotinus. The data set is described as above. The protocol:
as §1, §2

Data set [3] relates to Scirpus joncoides. The data set is described as above. The protocol:
as §1, §2

Data set [4] concerns barnyardgrass (Echinochloa oryzicola Vasing.). The data set is described as above. The protocol:
as §1, §2

For data set [5], the system named is transplanted paddy-field rice. As to the kind of experiment: Test Example 1: crop injury against transplanted paddy-field rice. The protocol: as §1, §2

From US7964531B2, “3-phenoxy-4-pyridazinol derivatives and herbicidal composition containing the same” (Mitsui Chemicals Agro, Inc., priority 2001, dated 2011) come the findings set out here.

Take `Oc1cc(Cl)nnc1Oc1cccc2ccccc12` [Example 180]: the “Herbicidal effects Broad leaf” value in data set [1] (chemical dosage 12.5 g/a) and in data set [1] (chemical dosage 25 g/a) was 5 (Growth inhibition rate; 91 to 100%) in each case. For the same compound, the “Herbicidal effects Cyperus serotinus” value in data set [2] (chemical dosage 12.5 g/a) and in data set [2] (chemical dosage 25 g/a) was 5 (Growth inhibition rate; 91 to 100%) each time. For the same compound, the “Herbicidal effects Scirpus joncoides” value in data set [3] (chemical dosage 12.5 g/a) is reported as 2 (Growth inhibition rate; 31 to 50%); in data set [3] (chemical dosage 25 g/a), 3 (Growth inhibition rate; 51 to 70%). Moreover, the “Herbicidal effects Barnyard grass” value in data set [4] (chemical dosage 12.5 g/a) and in data set [4] (chemical dosage 25 g/a) was 0 (Growth inhibition rate; 0 to 10%) throughout. The “Crop injury against transplanted rice” value in data set [5] (chemical dosage 12.5 g/a) and in data set [5] (chemical dosage 25 g/a) was 0 (Growth inhibition rate; 0 to 10%) each time.

With `Cc1ccccc1Oc1nnc(Cl)cc1OC(=O)OCC(Cl)(Cl)Cl` [Example 349], the figures for the “Herbicidal effects Broad leaf” value in data set [1] (chemical dosage 10 g/a) and in data set [1] (chemical dosage 20 g/a) were 4 (Growth inhibition rate; 71 to 90%) and 5 (Growth inhibition rate; 91 to 100%), respectively. The “Herbicidal effects Cyperus serotinus” value in data set [2] (chemical dosage 10 g/a) and in data set [2] (chemical dosage 20 g/a) was 5 (Growth inhibition rate; 91 to 100%) throughout. Moreover, the “Herbicidal effects Scirpus joncoides” value is reported as 4 (Growth inhibition rate; 71 to 90%) in data set [3] (chemical dosage 10 g/a) and 5 (Growth inhibition rate; 91 to 100%) in data set [3] (chemical dosage 20 g/a). In addition, the “Herbicidal effects Barnyard grass” value in data set [4] (chemical dosage 10 g/a) is on record as 3 (Growth inhibition rate; 51 to 70%); in data set [4] (chemical dosage 20 g/a) it was 4 (Growth inhibition rate; 71 to 90%). Also, the “Crop injury against transplanted rice” value in data set [5] (chemical dosage 10 g/a) and in data set [5] (chemical dosage 20 g/a) was 0 (Growth inhibition rate; 0 to 10%) in each case.

For `Oc1cc(Cl)nnc1Oc1c(C2CC2)ccc2c1CCC2` [Example 307], the “Herbicidal effects Broad leaf” value in data set [1] (chemical dosage 10 g/a) and in data set [1] (chemical dosage 20 g/a) was 5 (Growth inhibition rate; 91 to 100%) in each case. Moreover, the “Herbicidal effects Cyperus serotinus” value in data set [2] (chemical dosage 10 g/a) and in data set [2] (chemical dosage 20 g/a) was 5 (Growth inhibition rate; 91 to 100%) in each case. Further, the “Herbicidal effects Scirpus joncoides” value in data set [3] (chemical dosage 10 g/a) and in data set [3] (chemical dosage 20 g/a) was 5 (Growth inhibition rate; 91 to 100%) throughout. Further, the “Herbicidal effects Barnyard grass” value was 3 (Growth inhibition rate; 51 to 70%) in data set [4] (chemical dosage 10 g/a) and 4 (Growth inhibition rate; 71 to 90%) in data set [4] (chemical dosage 20 g/a). In addition, the “Crop injury against transplanted rice” value in data set [5] (chemical dosage 10 g/a) and in data set [5] (chemical dosage 20 g/a) was 0 (Growth inhibition rate; 0 to 10%) throughout.

For `Cc1cc(C)c(Oc2nnc(Cl)cc2O)c(C2CC2)c1` [Example 318], the “Herbicidal effects Broad leaf” value in data set [1] (chemical dosage 10 g/a) and in data set [1] (chemical dosage 20 g/a) was 5 (Growth inhibition rate; 91 to 100%) throughout. For the same compound, the “Herbicidal effects Cyperus serotinus” value in data set [2] (chemical dosage 10 g/a) and in data set [2] (chemical dosage 20 g/a) was 5 (Growth inhibition rate; 91 to 100%) throughout. In addition, the “Herbicidal effects Scirpus joncoides” value in data set [3] (chemical dosage 10 g/a) and in data set [3] (chemical dosage 20 g/a) was 5 (Growth inhibition rate; 91 to 100%) in each case. The “Herbicidal effects Barnyard grass” value was 0 (Growth inhibition rate; 0 to 10%) in data set [4] (chemical dosage 10 g/a) and 1 (Growth inhibition rate; 11 to 30%) in data set [4] (chemical dosage 20 g/a). Further, the “Crop injury against transplanted rice” value in data set [5] (chemical dosage 10 g/a) and in data set [5] (chemical dosage 20 g/a) was 0 (Growth inhibition rate; 0 to 10%) throughout.

In the case of `Cc1ccc(Cl)cc1Oc1nnc(Cl)cc1O` [Example 204], the “Herbicidal effects Broad leaf” value in data set [1] (chemical dosage 12.5 g/a) and in data set [1] (chemical dosage 25 g/a) was 5 (Growth inhibition rate; 91 to 100%) each time. Also, the “Herbicidal effects Cyperus serotinus” value in data set [2] (chemical dosage 12.5 g/a) and in data set [2] (chemical dosage 25 g/a) was 5 (Growth inhibition rate; 91 to 100%) throughout. Besides, the “Herbicidal effects Scirpus joncoides” value in data set [3] (chemical dosage 12.5 g/a) and in data set [3] (chemical dosage 25 g/a) was 5 (Growth inhibition rate; 91 to 100%) each time. For the same compound, the “Herbicidal effects Barnyard grass” value in data set [4] (chemical dosage 12.5 g/a) and in data set [4] (chemical dosage 25 g/a) was 2 (Growth inhibition rate; 31 to 50%) throughout. The “Crop injury against transplanted rice” value in data set [5] (chemical dosage 12.5 g/a) and in data set [5] (chemical dosage 25 g/a) was 0 (Growth inhibition rate; 0 to 10%) in each case.

`CCOc1ccccc1Oc1nnc(Cl)cc1O` [Example 122]: the “Herbicidal effects Broad leaf” value in data set [1] (chemical dosage 10 g/a) and in data set [1] (chemical dosage 20 g/a) was 5 (Growth inhibition rate; 91 to 100%) each time. Besides, the “Herbicidal effects Cyperus serotinus” value in data set [2] (chemical dosage 10 g/a) and in data set [2] (chemical dosage 20 g/a) was 5 (Growth inhibition rate; 91 to 100%) in each case. Also, the “Herbicidal effects Scirpus joncoides” value in data set [3] (chemical dosage 10 g/a) is on record as 4 (Growth inhibition rate; 71 to 90%); in data set [3] (chemical dosage 20 g/a), 5 (Growth inhibition rate; 91 to 100%). In addition, the “Herbicidal effects Barnyard grass” value in data set [4] (chemical dosage 10 g/a) and in data set [4] (chemical dosage 20 g/a) was 0 (Growth inhibition rate; 0 to 10%) throughout. Also, the “Crop injury against transplanted rice” value in data set [5] (chemical dosage 10 g/a) and in data set [5] (chemical dosage 20 g/a) was 0 (Growth inhibition rate; 0 to 10%) each time.

As to `CCCS(=O)(=O)Oc1cc(Cl)nnc1Oc1cccc2c1CCC2` [Example 361], the “Herbicidal effects Broad leaf” value in data set [1] (chemical dosage 10 g/a) and in data set [1] (chemical dosage 20 g/a) was 5 (Growth inhibition rate; 91 to 100%) in each case. The “Herbicidal effects Cyperus serotinus” value is 4 (Growth inhibition rate; 71 to 90%) in data set [2] (chemical dosage 10 g/a) and 5 (Growth inhibition rate; 91 to 100%) in data set [2] (chemical dosage 20 g/a). Besides, the “Herbicidal effects Scirpus joncoides” value in data set [3] (chemical dosage 10 g/a) and in data set [3] (chemical dosage 20 g/a) was 5 (Growth inhibition rate; 91 to 100%) throughout. Besides, the entries for the “Herbicidal effects Barnyard grass” value in data set [4] (chemical dosage 10 g/a) and in data set [4] (chemical dosage 20 g/a) were 2 (Growth inhibition rate; 31 to 50%) and 3 (Growth inhibition rate; 51 to 70%), respectively. Moreover, the “Crop injury against transplanted rice” value in data set [5] (chemical dosage 10 g/a) and in data set [5] (chemical dosage 20 g/a) was 0 (Growth inhibition rate; 0 to 10%) in each case.

With `Oc1cc(Cl)nnc1Oc1ccccc1F` [Example 49], the figures for the “Herbicidal effects Broad leaf” value in data set [1] (chemical dosage 12.5 g/a) and in data set [1] (chemical dosage 25 g/a) were 3 (Growth inhibition rate; 51 to 70%) and 5 (Growth inhibition rate; 91 to 100%), respectively. Moreover, the “Herbicidal effects Cyperus serotinus” value in data set [2] (chemical dosage 12.5 g/a) and in data set [2] (chemical dosage 25 g/a) was 5 (Growth inhibition rate; 91 to 100%) each time. The entries for the “Herbicidal effects Scirpus joncoides” value in data set [3] (chemical dosage 12.5 g/a) and in data set [3] (chemical dosage 25 g/a) were 3 (Growth inhibition rate; 51 to 70%) and 4 (Growth inhibition rate; 71 to 90%), respectively. In addition, the results for the “Herbicidal effects Barnyard grass” value in data set [4] (chemical dosage 12.5 g/a) and in data set [4] (chemical dosage 25 g/a) were 1 (Growth inhibition rate; 11 to 30%) and 2 (Growth inhibition rate; 31 to 50%), respectively. For the same compound, the “Crop injury against transplanted rice” value in data set [5] (chemical dosage 12.5 g/a) and in data set [5] (chemical dosage 25 g/a) was 0 (Growth inhibition rate; 0 to 10%) throughout.

In the case of `Cc1cc(C)c(Br)c(Oc2nnc(Cl)cc2O)c1C` [Example 319], the “Herbicidal effects Broad leaf” value in data set [1] (chemical dosage 10 g/a) and in data set [1] (chemical dosage 20 g/a) was 5 (Growth inhibition rate; 91 to 100%) in each case. Moreover, the “Herbicidal effects Cyperus serotinus” value in data set [2] (chemical dosage 10 g/a) and in data set [2] (chemical dosage 20 g/a) was 5 (Growth inhibition rate; 91 to 100%) in each case. Also, the “Herbicidal effects Scirpus joncoides” value in data set [3] (chemical dosage 10 g/a) and in data set [3] (chemical dosage 20 g/a) was 5 (Growth inhibition rate; 91 to 100%) each time. Also, the “Herbicidal effects Barnyard grass” value in data set [4] (chemical dosage 10 g/a) is 2 (Growth inhibition rate; 31 to 50%); in data set [4] (chemical dosage 20 g/a), 3 (Growth inhibition rate; 51 to 70%). Further, the “Crop injury against transplanted rice” value in data set [5] (chemical dosage 10 g/a) and in data set [5] (chemical dosage 20 g/a) was 0 (Growth inhibition rate; 0 to 10%) throughout.

For the compound `Cc1cccc(Oc2nnc(Cl)cc2O)c1C1CC1` [Example 166], the “Herbicidal effects Broad leaf” value in data set [1] (chemical dosage 10 g/a) and in data set [1] (chemical dosage 20 g/a) was 5 (Growth inhibition rate; 91 to 100%) in each case. Further, the “Herbicidal effects Cyperus serotinus” value in data set [2] (chemical dosage 10 g/a) and in data set [2] (chemical dosage 20 g/a) was 5 (Growth inhibition rate; 91 to 100%) each time. Further, the “Herbicidal effects Scirpus joncoides” value in data set [3] (chemical dosage 10 g/a) and in data set [3] (chemical dosage 20 g/a) was 5 (Growth inhibition rate; 91 to 100%) each time. The “Herbicidal effects Barnyard grass” value was 0 (Growth inhibition rate; 0 to 10%) in data set [4] (chemical dosage 10 g/a) and 1 (Growth inhibition rate; 11 to 30%) in data set [4] (chemical dosage 20 g/a). In addition, the “Crop injury against transplanted rice” value in data set [5] (chemical dosage 10 g/a) and in data set [5] (chemical dosage 20 g/a) was 0 (Growth inhibition rate; 0 to 10%) in each case.
